In ChEMBL document CHEMBL4000175, “Biology-oriented drug synthesis (BIODS): In vitro β-glucuronidase inhibitory and in silico studies on 2-(2-methyl-5-nitro-1H-imidazol-1-yl)ethyl aryl carboxylate derivatives” (Eur J Med Chem, 2017) one finds Ratio IC50 and IC50 data, which are given here for 26 compounds.

Molecules are shown by their SMILES.

The target in the first assay is T1, Beta-glucuronidase (Bos taurus) (UniProt A3KMY8).
T1 sequence (whole entry): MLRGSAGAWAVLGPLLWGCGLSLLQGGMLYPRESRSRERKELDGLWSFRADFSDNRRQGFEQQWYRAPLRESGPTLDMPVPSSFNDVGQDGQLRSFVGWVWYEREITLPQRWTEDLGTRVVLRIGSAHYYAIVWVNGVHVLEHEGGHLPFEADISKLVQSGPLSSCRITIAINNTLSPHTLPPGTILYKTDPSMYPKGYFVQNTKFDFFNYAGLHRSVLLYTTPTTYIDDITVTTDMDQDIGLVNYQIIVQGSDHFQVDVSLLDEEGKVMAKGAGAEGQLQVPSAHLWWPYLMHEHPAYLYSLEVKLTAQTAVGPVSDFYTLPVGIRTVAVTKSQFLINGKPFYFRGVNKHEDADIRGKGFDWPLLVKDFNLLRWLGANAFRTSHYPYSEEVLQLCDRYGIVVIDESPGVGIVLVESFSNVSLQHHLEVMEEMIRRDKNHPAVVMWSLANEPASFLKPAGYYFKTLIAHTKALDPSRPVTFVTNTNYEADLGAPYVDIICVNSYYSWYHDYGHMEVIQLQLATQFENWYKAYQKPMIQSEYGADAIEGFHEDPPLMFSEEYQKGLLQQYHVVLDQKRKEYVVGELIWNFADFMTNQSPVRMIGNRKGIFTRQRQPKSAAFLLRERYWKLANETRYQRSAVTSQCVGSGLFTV
Description: Potency index, ratio of D-saccharic acid 1,4-lactone IC50 to compound IC50 for bovine liver beta glucuronidase.
Conditions: not given; call rule not given here
Regarding `Cc1cc(C(=O)OCCn2c([N+](=O)[O-])cnc2C)ccc1[N+](=O)[O-]`, the Ratio IC50 amounted to 7.
In the case of `Cc1ncc([N+](=O)[O-])n1CCOC(=O)c1cc2ccccc2[nH]1`, the Ratio IC50 was found to be 24.
Still for that read-out and setting: to `Cc1ncc([N+](=O)[O-])n1CCOC(=O)c1ccc(Cl)c(Cl)c1` belongs 15; to `Cc1ncc([N+](=O)[O-])n1CCOC(=O)c1ccc2ncsc2c1`, 6.

Another assay deals with T2, Beta-glucuronidase (Bos taurus, UniProt A3KMY8).
T2 sequence (A3KMY8 whole entry): T1 sequence (whole entry)
Description: Inhibition of bovine liver beta glucuronidase using p-nitrophenyl-beta-D-glucuronide as substrate preincubated for 30 mins followed by substrate addition by spectrophotometric method.
Conditions: not given
For `CCCCOc1ccc(C(=O)OCCn2c([N+](=O)[O-])cnc2C)cc1`, the IC50 entry is given as “Not Active”.
In the case of `Cc1ncc([N+](=O)[O-])n1CCOC(=O)c1ccc2ccccc2c1`, the IC50 result is “Not Active”.
On to `Cc1ncc([N+](=O)[O-])n1CCOC(=O)c1cccc2ccccc12`, for which the IC50 result was “Not Active”.
Turning to `Cc1cccc(C(=O)OCCn2c([N+](=O)[O-])cnc2C)c1`, the IC50 entry was “Not Active”.

The assay is the same for the next values; noted with them: read-out: IC50.
In the case of `Cc1ncc([N+](=O)[O-])n1CCOC(=O)c1cccc(Cl)c1`, the IC50 was determined as 16.3 µM.
Take `Clc1ccc(-c2nc3ccccc3[nH]2)cc1Cl`: the IC50 stood at 6.33 µM.
Same read-out and setting: to `Cc1cc(C(=O)OCCn2c([N+](=O)[O-])cnc2C)ccc1[N+](=O)[O-]` belongs 7.3 µM; to `Cc1ncc([N+](=O)[O-])n1CCOC(=O)c1cc2ccccc2[nH]1`, 2.1 µM.
Still for that read-out and setting: the value for `Cc1ccc(C(=O)OCCn2c([N+](=O)[O-])cnc2C)cc1` was 35.5 µM; that for `Cc1ncc([N+](=O)[O-])n1CCOC(=O)c1ccc(Cl)c(Cl)c1` was 3.6 µM.
`Cc1ccccc1C(=O)OCCn1c([N+](=O)[O-])cnc1C`: the IC50 was found to be 44.2 µM.
Take `Cc1ncc([N+](=O)[O-])n1CCOC(=O)c1ccc([N+](=O)[O-])cc1`: the concentration for half-maximal inhibition (IC50) stood at 8.9 µM.
As for `Cc1ncc([N+](=O)[O-])n1CCOC(=O)c1ccccc1Br`, the IC50 was 48.5 µM.
For the compound `Cc1cc(C)cc(C(=O)OCCn2c([N+](=O)[O-])cnc2C)c1`, the 50% inhibitory concentration (IC50) came out at 24.2 µM.
For `COc1ccc(/C=C/C(=O)OCCn2c([N+](=O)[O-])cnc2C)cc1`, the IC50 was 31.1 µM.
On the same count and under the same terms, the value for `Cc1ncc([N+](=O)[O-])n1CCOC(=O)c1cc(Cl)ccc1Cl` was 6.2 µM; that for `Cc1ncc([N+](=O)[O-])n1CCOC(=O)c1cccc(F)c1` was 8.1 µM; that for `Cc1ncc([N+](=O)[O-])n1CCOC(=O)c1ccccc1Cl` was 19.3 µM.
On the same count and under the same terms, to `Cc1ncc([N+](=O)[O-])n1CCOC(=O)c1ccc(Br)cc1` belongs 42.6 µM; to `Cc1ncc([N+](=O)[O-])n1CCOC(=O)c1ccc(F)cc1`, 12.4 µM; to `Cc1ncc([N+](=O)[O-])n1CCOC(=O)c1cccc([N+](=O)[O-])c1`, 27.6 µM.
Same read-out and setting: the value for `Cc1ncc([N+](=O)[O-])n1CCOC(=O)c1ccc(F)cc1Br` was 6.3 µM; that for `COc1ccc(C(=O)OCCn2c([N+](=O)[O-])cnc2C)cc1` was 60.2 µM; that for `Cc1ncc([N+](=O)[O-])n1CCOC(=O)c1ccc2ncsc2c1` was 8.4 µM.
Consider `Cc1ncc([N+](=O)[O-])n1CCOC(=O)c1cccnc1`, for which the IC50 was 32.6 µM.
The same measure, in the same setting: the value for `COc1cc(OC)cc(C(=O)OCCn2c([N+](=O)[O-])cnc2C)c1` was 60.3 µM.
